In brackets after ≈: the same amount, converted by molar mass. Several values for one entry are separate records, joined by “and”; a condition that tells them apart may be missing. Equal entries are not always repeated.

The values below come from publication PMC9785777, “Antidiabetic Potential of Novel 1,3,5-Trisubstituted-2-Thioxoimidazloidin-4-One Analogues: Insights into α-Glucosidase, α-Amylase, and Antioxidant Activities” (Pharmaceuticals, 2022).

The subject of data set [1] is INS-1 cells. The arrangement: method as in PMID 10918947. To be noted: 10 µg/mL, in the presence of 5.6 mmol/L glucose ref 36; cited from earlier work.
Data set [2] addresses α-amylase. To be noted: cited from earlier work.
For data set [3], the target named is α-glucosidase. To be noted: cited from earlier work.
In data set [4] the target is T1, α-glucosidase enzyme (EC3.2.1.20) (Saccharomyces cerevisiae, UniProt P53341).
T1 construct: purchased Sigma-Aldrich
T1 sequence (P53341 whole entry): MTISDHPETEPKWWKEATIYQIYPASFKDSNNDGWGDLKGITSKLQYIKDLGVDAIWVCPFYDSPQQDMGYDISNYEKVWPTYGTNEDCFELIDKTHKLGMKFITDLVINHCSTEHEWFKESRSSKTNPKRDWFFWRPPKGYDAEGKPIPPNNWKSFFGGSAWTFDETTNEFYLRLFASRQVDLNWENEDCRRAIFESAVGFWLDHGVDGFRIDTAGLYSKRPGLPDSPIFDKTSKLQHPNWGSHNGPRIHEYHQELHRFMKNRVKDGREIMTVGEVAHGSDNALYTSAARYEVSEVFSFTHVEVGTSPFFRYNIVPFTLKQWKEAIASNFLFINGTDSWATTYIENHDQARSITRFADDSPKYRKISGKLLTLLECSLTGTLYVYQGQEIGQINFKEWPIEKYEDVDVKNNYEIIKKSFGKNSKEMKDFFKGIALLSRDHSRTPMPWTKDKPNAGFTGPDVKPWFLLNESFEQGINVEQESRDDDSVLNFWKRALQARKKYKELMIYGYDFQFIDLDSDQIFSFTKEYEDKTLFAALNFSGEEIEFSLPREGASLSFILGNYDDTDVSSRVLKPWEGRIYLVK
The experiment in a line: biochemical. Conditions: read-out: % inhibition of α-glucosidase. The text has this: The α-glucosidase enzyme is mainly expressed in the small intestine and catalyzes the breakdown of carbohydrates into glucose units by cleaving the glucosidic bonds. α-Glucosidase blockers are the first-line drugs for the treatment of non-insulin-dependent DM by suppressing carbohydrate hydrolysis and consequently retarding glucose absorption into the bloodstream and reducing postprandial hyperglycemia. α-Glucosidase is, thus, considered to be an attractive pharmaceutical target for the treatment of […] via control of the blood glucose levels. Accordingly, there is a continuous need to develop a potential class of α-glucosidase inhibitors. Toward this aim, we explored the potency of the synthesized compounds to inhibit the activity of α-glucosidase. We examined the inhibitory activity of the synthesized compounds following the reported assay by Peytam et al.. Thus, the compounds at different concentrations (1000, 100, 10, and 1 µg/mL) were incubated with α-glucosidase and subsequently […] was added and the absorbance was monitored at 405 nm. […] To further investigate the structural aspects of 1,3-thiohydantoin scaffold, a substitution at the N1-position with the methyl-proponate group was performed. […] Nevertheless, it has adverse gastrointestinal effects including diarrhea and flatulence. Thus, the discovery of a novel class of potent antidiabetic agents is urgently demanded.
An ELISA reader was used to assess the inhibition of α-glucosidase by 1,3,5-trisubstituted-2-thioxoimidazolidin-4-ones derivatives at various doses (1000, 100, 10, and 1 µg/mL) according to Peytam et al.. […] Then, the substrate (25 µL, 4 mM) was added to the mentioned mixture and allowed to incubate at 37 °C for 20 min. Finally, the change in absorbance at 405 nm was monitored using a Cytation 3 hybrid microplate reader (BioTek, Winooski, VT, USA). […] GraphPad prism 6.0 was used to calculate the IC50 values of the investigated compounds from the nonlinear regression curve (Systat Software, Inc. Tools for Science) (https://www.graphpad.com/scientific-software/prism/ (accessed on 1 September 2022)).

Data set [5] has as its target T2, α-amylase enzyme (Sus scrofa, UniProt P00690).
T2 sequence (P00690 16-511): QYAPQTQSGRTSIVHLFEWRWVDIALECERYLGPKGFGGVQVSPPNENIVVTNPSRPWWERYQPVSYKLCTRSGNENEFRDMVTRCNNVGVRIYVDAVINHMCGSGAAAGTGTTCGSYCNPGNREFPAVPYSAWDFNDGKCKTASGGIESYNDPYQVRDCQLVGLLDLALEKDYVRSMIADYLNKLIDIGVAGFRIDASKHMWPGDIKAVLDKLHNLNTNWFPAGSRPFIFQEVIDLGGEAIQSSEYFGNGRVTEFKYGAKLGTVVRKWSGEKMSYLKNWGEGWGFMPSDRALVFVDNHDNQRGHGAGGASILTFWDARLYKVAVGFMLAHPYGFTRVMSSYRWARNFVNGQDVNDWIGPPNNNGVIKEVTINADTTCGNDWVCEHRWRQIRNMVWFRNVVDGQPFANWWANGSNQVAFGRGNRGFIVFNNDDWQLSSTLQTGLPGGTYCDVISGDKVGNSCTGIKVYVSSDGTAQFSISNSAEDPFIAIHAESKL
The experiment in a line: α-amylase inhibition assay (DNSA, absorbance 595 nm). It is filed as biochemical. The text has this:
Furthermore, pancreatic α-amylase mediates the activity of glycoproteins in the small intestine membrane, such as sucrase-isomaltase and sodium/glucose cotransporter 1, via binding with N-linked oligosaccharides. […] However, attempts to find novel antagonists with enhanced effectiveness and minimum adverse effects are still worth investigating. In this regard, we examined the inhibitory activity of the synthesized compounds 4a–b, 5a–b, and 7a–b toward α-amylase activity. Therefore, compounds at different concentrations (100, 10, 1, and 0.1 µg/mL) were mixed with the α-amylase enzyme and subsequently 3,5-dinitrosalicylic acid was added and the absorption was assessed at 595 nm. […] To date, several potent natural and synthetic antagonists with dual inhibitory activities toward α-amylase and α-glucosidase enzymes have been reported which succeeded in being applied in clinics.
The inhibitory activity of synthesized 1,3,5-trisubstituted-2-thioxoimidazolidin-4-ones derivatives toward α-amylase activity was determined by ELISA analysis according to Bernfeld and Colowick. The α-amylase enzyme was provided by Sigma-Aldrich and the stock solution was prepared in DMSO (10 mg/10 mL). […] Briefly, α-amylase enzyme (100 mg, 1 unit per mL) was mixed in 100 mL of a 20 mM sodium phosphate buffer (pH 6.9). […] After incubation, 100 μL of the DNSA reagent was added to this mixture, and then heated in a water bath at 85 °C for 15 min. The reaction mixture was taken from the water bath, cooled, and the absorbance value at 595 nm was assessed. Individual blanks were created in order to adjust the background absorbance. A control experiment was carried out following the same protocol using DMSO. The α-amylase enzyme activity and percentage of inhibition were determined using the following formula: % Inhibition=control−test/control×100

Data set [6] is described as follows: ROS-generation assay (H2O2 generated with DTT, HRP-phenol red, 610 nm). Conditions: 50 µM compound, incubated with DTT; control 90.74±5.54. The text has this:
The […] metabolites and enzymes (such as NADPH oxidase, lipoxygenase, and cytochrome P450) act together to mediate the production of ROS and diminish the counteractive oxidative damage. ROS can cause damage to DNA, lipid, proteins, and nucleic acids and the destruction of cell components leading to cell death. Toward this end, we aimed to investigate whether the mode of action of this class of compounds involved the generation of ROS. ROS-producing compounds upon reaction with a reducing agent in the presence of oxygen afford superoxide O^•−2 radical and hydrogen peroxide (H2O2) which could be quantitively estimated. Thus, compounds 5a and 7a (at 50 µM concentration) were incubated with the reducing agent dithiothreitol (DTT) and the generated H2O2 was subsequently assessed by monitoring the oxidation of phenol red in the presence of horseradish peroxidase (HRP) at the absorbance of 610 nm. We first examined the validity of the assay by examining the activity of a known ROS-producing standard drug. In our study, Celecoxib was utilized as a reference pharmacological ROS-generating drug. […] Next, we evaluated the potency of compounds 5a and 7a to produce ROS at a 50 µM concentration.
According to Nasiri et al., the antioxidant activity of compounds (5a, 7a) and Celecoxib was measured by an evaluation of ROS-generation using ELISA analysis. Three different solutions were prepared for the in vitro assessment of ROS-generation: phenol red, sodium hydroxide solution, and DTT. All reagents were provided by Sigma-Aldrich. A stock solution of DTT (20 mM) was prepared by dissolving […] of DTT in 500 µL of Hank’s Balanced Salt Solution (HBSS), and the obtained solution was preserved at −20 °C. The stock solution was further diluted with HBSS to 0.8 mM for each measurement. The HRP-PR solution was prepared by dissolving 1.8 mg of horseradish peroxidase (HRP) and 3 mg of phenol red (PR) in 10 mL of HBSS. […] After incubation, 1N NaOH was applied, and the absorbance at 610 nm was measured using a plate reader spectrometer. […]

Data set [7] deals with human lung fibroblast WI-38 cell line. The experiment in a line: MTT cytotoxicity assay against WI-38 cells. Conditions: MTT, 48 h. Type of data set: cell-based. Here is the method: (§1) Based on the promising dual inhibitory activity of this class of compounds, we next evaluated the cytotoxicity of compounds 5a and 7a against human lung fibroblast cell line WI-38 in order to gain insights into the toxicity of this class of compounds utilizing the MTT assay. In this regard, lung fibroblast cells were cultured and treated with compounds 5a and 7a for 48 h at different concentrations (1000, 250, 63, 16, and 4 µg/mL). After the cells were washed, they were treated with MTT solution and the absorption was assessed using an ELISA reader at 570 nm. As a pharmacological reference drug, Celecoxib, a well-known anti-inflammatory agent, was utilized.
(§2) The cytotoxicity of compounds 5a and 7a was assessed toward the human lung fibroblast WI-38 cell line (Sigma-Aldrich, St. Louis, MO, USA, product number 90020107) using MTT assay. The MTT test assay was performed in accordance with the previously stated procedure. MTT (3-(4,5-dimethylthiazol-2-yl)-2,5-diphenyl tetrazolium bromide; Sigma catalog no. M2128) was dissolved in PBS at 5 mg/mL and processed to eliminate the insoluble residues. Briefly, cells (10^5 cells/well) were treated for 48 h at 37 °C with compounds 5a and 7a at varied doses (1000, 250, 63, 16, and 4 µg/mL, DMSO stock solutions) in a 5% CO2 atmosphere. In our assessment, celecoxib, an inhibitor of cyclooxygenase 2, was employed as a standard reference drug. Following cell washing, MTT solution (180 µL/well) was applied to the cells and incubated at 37 °C for 4 h with shaking, and the absorbance was measured using an ELISA reader at 570 nm.

Data set [8] is described as follows: MTT cytotoxicity assay against WI-38 cells. It is filed as cell-based, human. To be noted: human, WI-38 lung fibroblast cells. Here is the method:
as §1, §2

On to `CN1C(=O)/C(=C/c2ccc(-c3cc(=O)c4ccccc4o3)cc2)N(C)C1=S` [Compound 9], for which the “increase of insulin release as compared to control” value in data set [1] was 40%.

As for `O=C1CNC(=S)N1` [unsubstituted-2-thiohydantoin, 2-thiohydantoin], the “IC50 toward α-amylase activity” value in data set [2] is listed as 410.35 µg/mL (≈ 3530 µM). Also, the “IC50 toward α-glucosidase activity” value in data set [3] is recorded as 356.22 µg/mL (≈ 3070 µM).

For `C[C@H]1O[C@H](O[C@H]2[C@H](O)[C@@H](O)[C@@H](O[C@H]3[C@H](O)[C@@H](O)C(O)O[C@@H]3CO)O[C@@H]2CO)[C@H](O)[C@@H](O)[C@@H]1N[C@H]1C=C(CO)[C@@H](O)[C@H](O)[C@H]1O` (stereo partly drawn) [Acarbose, reference compound], in data set [4], the inhibition (commonly the percentage by which the read-out fell short of the control) at 1 µg/mL is 31.8%, the inhibition at 10 µg/mL was found to be 58.4%, the inhibition at 100 µg/mL came to 76.9% and the inhibition at 1000 µg/mL was 88.4%. Further, the “% inhibition of α-amylase” value in data set [5] (0.1 µg/mL (log -1)) was 37.2%. Besides, in data set [5] (1 µg/mL (log 0)), the “% inhibition of α-amylase” value was 58.3%. Also, the “% inhibition of α-amylase” value in data set [5] (10 µg/mL (log 1)) worked out at 80.3%. For the same compound, the “% inhibition of α-amylase” value in data set [5] (100 µg/mL (log 2)) came to 92.1%.

With `Cc1ccc(-c2cc(C(F)(F)F)nn2-c2ccc(S(N)(=O)=O)cc2)cc1` [Celecoxib, reference compound], the “ROS produced (generated H2O2)” value in data set [6] was 171.6 pg/mL and 171.6 ± 1.89 pg/mL. Moreover, the “WI-38 cytotoxicity IC50” value in data set [7] was 93.054 µg/mL. Also, in data set [8] (4 µg/mL (log conc. 0.602)), the viability (usually the share of living cells, or the viability signal relative to a control) at 48 h, 4 µg/mL came to 67.3%. Besides, the viability at 48 h, 16 µg/mL in data set [8] (16 µg/mL (log conc. 1.204)) was determined as 61.7%. Also, in data set [8] (63 µg/mL (log conc. 1.799)), the viability at 48 h, 63 µg/mL was 54.2%. This compound showed a viability at 48 h, 250 µg/mL in data set [8] (250 µg/mL (log conc. 2.398)) of 43%. The compound also displayed a viability at 48 h, 1000 µg/mL in data set [8] (1000 µg/mL (log conc. 3)) of 35.4%. Also, the IC50 – broadly, the concentration that gives 50% inhibition – at 48 h in data set [8] (MTT) is 93 µg/mL (≈ 244 µM).

On to `O=C1CNC(=S)N1C(=O)c1cc([N+](=O)[O-])cc([N+](=O)[O-])c1` [Compound 3j], for which the IC50 in data set [2] (read-out: IC50 toward α-amylase enzyme) is 8.2 µM; in data set [3] (read-out: IC50 toward α-glucosidase enzyme) it was 51 µM.
